Test results: PubChem BioAssay (NCI)
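Five compound concentrations were applied to cells in 96-well plates for 48 hours; endpoints were derived by simple linear interpolation of the resulting dose-response curve. GI50: concentration for 50% inhibition of growth. At the TGI there is no net growth.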

Legend:
Assay in all cases: growth of human tumour cells (NCI), 48 h
CAKI-1 renal = tested on: CAKI-1 renal
UACC-257 melanoma = tested on: UACC-257 melanoma
SF-295 CNS = tested on: SF-295 CNS
RPMI-8226 leukemia = tested on: RPMI-8226 leukemia
NCI-H226 lung = tested on: NCI-H226 lung
SK-MEL-28 melanoma = tested on: SK-MEL-28 melanoma
EKVX NSCLC = tested on: EKVX NSCLC
OVCAR-4 ovarian = tested on: OVCAR-4 ovarian
UACC-62 melanoma = tested on: UACC-62 melanoma
SK-MEL-5 melanoma = tested on: SK-MEL-5 melanoma
IGROV1 ovarian = tested on: IGROV1 ovarian

| SMILES | TGI (CAKI-1 renal) | TGI (UACC-257 melanoma) | TGI (SF-295 CNS) | TGI (RPMI-8226 leukemia) | TGI (NCI-H226 lung) | TGI (SK-MEL-28 melanoma) | TGI (EKVX NSCLC) | TGI (OVCAR-4 ovarian) | TGI (UACC-62 melanoma) | TGI (SK-MEL-5 melanoma) | TGI (IGROV1 ovarian) | GI50 (CAKI-1 renal) | GI50 (UACC-257 melanoma) | GI50 (SF-295 CNS) | GI50 (RPMI-8226 leukemia) | GI50 (NCI-H226 lung) | GI50 (UACC-62 melanoma) | GI50 (SK-MEL-5 melanoma) | GI50 (IGROV1 ovarian) |
| --- | --- | --- | --- | --- | --- | --- | --- | --- | --- | --- | --- | --- | --- | --- | --- | --- | --- | --- | --- |
| CC(Oc1ccc(Cl)cc1Cl)C(=O)NN1C(=O)CC(=O)NC1=S (centres undefined) | > 100 µM | > 100 µM | > 100 µM | > 100 µM | > 100 µM | > 100 µM | > 100 µM | > 100 µM | > 100 µM | > 100 µM | > 100 µM | – | – | – | – | – | – | – | – |
| CC(C)(C)c1cc(C(C)(C)C)c(SSc2c(C(C)(C)C)cc(C(C)(C)C)c(O)c2O)c(O)c1O | 23.7 µM | 21.7 µM | – | 32.1 µM | 35 µM | 33.8 µM | 35.7 µM | 15.5 µM | 18.8 µM | 24 µM | 26.3 µM | – | – | – | – | – | – | – | – |
| COc1cc(C2c3cc4c(cc3[C@@H](Nc3cnc5ccccc5c3)C3COC(=O)[C@H]23)OCO4)cc(OC)c1O (some centres undefined) | 1.78 µM | 6.64 µM | 1.14 µM | 1.9 µM | 1.23 µM | 3.85 µM | 9.09 µM | 4.43 µM | 2.06 µM | 1.78 µM | 10.4 µM | – | – | – | – | – | – | – | – |
| O=C(Cn1c(C(=O)/C=C/c2ccc(Cl)c(Cl)c2)nc2ccccc21)c1ccccc1 | – | > 100 µM | – | > 100 µM | > 100 µM | > 100 µM | 42.8 µM | 73.2 µM | > 100 µM | 35.4 µM | 79 µM | – | – | – | – | – | – | – | – |
| COc1ccc2[nH]c(=O)cc(C)c2c1[N+](=O)[O-] | > 100 µM | > 100 µM | > 100 µM | > 100 µM | > 100 µM | > 100 µM | > 100 µM | > 100 µM | > 100 µM | > 100 µM | > 100 µM | – | – | – | – | – | – | – | – |
| COc1ccc(C(=O)c2[nH]c(Nc3cc(C)ccn3)c(C(=S)Nc3ccccc3)c2N)cc1 | > 100 µM | 32.7 µM | 49.5 µM | 37.3 µM | 47.3 µM | 34 µM | > 100 µM | 36.5 µM | 26.7 µM | – | 42 µM | – | – | – | – | – | – | – | – |
| CC1(c2cccc(C(F)(F)F)c2)CC(c2cccc(C(F)(F)F)c2)=C(C#N)C(=C(C#N)C#N)N1 (centres undefined) | 33.3 µM | 31.7 µM | 31 µM | 47 µM | 58.6 µM | 33.9 µM | 34 µM | 30.8 µM | 31.3 µM | 29 µM | 30.6 µM | – | – | – | – | – | – | – | – |
| CC1=NN(c2ccccc2Cl)C2(C1)C(Cl)C(=O)N2c1nc2ccccc2s1 (centres undefined) | > 100 µM | > 100 µM | > 100 µM | 58.6 µM | > 100 µM | – | > 100 µM | > 100 µM | > 100 µM | > 100 µM | > 100 µM | – | – | – | – | – | – | – | – |
| Nc1nc(N)c2ncn(Cc3ccccc3CO)c2n1 | > 100 µM | > 100 µM | > 100 µM | > 100 µM | > 100 µM | > 100 µM | > 100 µM | > 100 µM | > 100 µM | > 100 µM | > 100 µM | – | – | – | – | – | – | – | – |
| COC(=O)/C=C1\C(=O)Nc2ccc(Br)cc21 | 3.87 µM | 3.07 µM | 5.07 µM | 4.48 µM | 4.03 µM | 8.43 µM | 4.49 µM | 5.84 µM | 3.2 µM | 3.2 µM | 3.63 µM | – | – | – | – | – | – | – | – |
| COc1cnc2oc3ccc(O)cc3c2c1-c1ccccc1 | > 100 µM | > 100 µM | > 100 µM | > 100 µM | – | > 100 µM | > 100 µM | > 100 µM | – | > 100 µM | – | – | – | – | – | – | – | – | – |
| O=c1c2cc([N+](=O)[O-])ccc2[nH]n1Cc1ccccc1Cl | > 100 µM | > 100 µM | > 100 µM | 95.2 µM | > 100 µM | > 100 µM | > 100 µM | > 100 µM | > 100 µM | > 100 µM | > 100 µM | – | – | – | – | – | – | – | – |
| CS(C)(=O)=Nn1c(=O)n2n(c1=O)[C@H]1CC[C@@H]2C1 | > 100 µM | > 100 µM | > 100 µM | > 100 µM | > 100 µM | > 100 µM | > 100 µM | – | > 100 µM | > 100 µM | > 100 µM | – | – | – | – | – | – | – | – |
| COc1cc2c(/C=C3/C(=O)Nc4cc(C)c(O)cc43)c(Cl)[nH]c2cc1C | 7.01 µM | 19.6 µM | 5.07 µM | 4.44 µM | 23.6 µM | 18.9 µM | – | 24.1 µM | 8.77 µM | 12.5 µM | 18.8 µM | – | – | – | – | – | – | – | – |
| O=C1C=CC2(C=C1)O[C@H](CCc1ccccc1)[C@@H](CCc1ccccc1)O2 | > 100 µM | > 100 µM | > 100 µM | > 100 µM | > 100 µM | > 100 µM | 83.3 µM | > 100 µM | > 100 µM | > 100 µM | > 100 µM | – | – | – | – | – | – | – | – |
| C=CCn1c(C)nc2cc(Nc3nc(N4CCCC4)nc4nc[nH]c34)ccc21 | > 100 µM | > 100 µM | > 100 µM | > 100 µM | > 100 µM | – | – | – | > 100 µM | > 100 µM | > 100 µM | > 100 µM | > 100 µM | > 100 µM | > 100 µM | > 100 µM | > 100 µM | > 100 µM | > 100 µM |
| COc1ccc(/C=C2\CC3C4CC=C5C[C@@H](N6CCCC6)CC[C@]5(C)C4CC[C@]3(C)[C@H]2O)cc1OC (some centres undefined) | 16.7 µM | 15.4 µM | 11.5 µM | 22.1 µM | 20.2 µM | 20.1 µM | 16.9 µM | 17.1 µM | 16 µM | 14.3 µM | 21.4 µM | – | – | – | – | – | – | – | – |
| Cc1c2cnccc2c(C)c2c1c1ccccc1n2CCCCCCCl | > 50 µM | > 50 µM | > 50 µM | > 48.9 µM | > 46.7 µM | > 50 µM | > 50 µM | > 29.3 µM | > 50 µM | > 50 µM | > 50 µM | – | – | – | – | – | – | – | – |
| Nc1nc2cc(COc3ccc(C(=O)O)cc3)ccc2nc1-c1ccccc1 | > 10 µM | > 10 µM | > 10 µM | > 10 µM | > 10 µM | > 10 µM | > 10 µM | > 10 µM | > 10 µM | > 10 µM | > 10 µM | – | – | – | – | – | – | – | – |
| COc1ccc(C)cc1NC(=S)N/N=C/c1ccco1 | > 100 µM | > 100 µM | > 100 µM | 71.8 µM | > 100 µM | > 100 µM | 64.3 µM | > 100 µM | > 100 µM | 32.9 µM | > 100 µM | – | – | – | – | – | – | – | – |
| O=C1Nc2ccccc2C1(O)Cc1ccccn1 (centres undefined) | > 100 µM | > 100 µM | > 100 µM | > 100 µM | > 100 µM | > 100 µM | > 100 µM | > 100 µM | > 100 µM | > 100 µM | > 100 µM | – | – | – | – | – | – | – | – |
| O=C1Sc2sc(=S)sc2SC1c1ccccc1 (centres undefined) | > 100 µM | > 100 µM | > 100 µM | > 100 µM | > 100 µM | > 64.8 µM | > 100 µM | > 31.6 µM | 57.2 µM | > 100 µM | > 100 µM | – | – | – | – | – | – | – | – |
| C=C1C(=O)OC2/C=C(CO)/C=C\C3OC3(C)CC(OC(=O)/C(C)=C/COC(C)=O)C12 (centres undefined) | 10.9 µM | 6.59 µM | 28.3 µM | 4.33 µM | 27.7 µM | 3.26 µM | 12.8 µM | 16.4 µM | 4.96 µM | 15.9 µM | 23.9 µM | – | – | – | – | – | – | – | – |
| COc1cc2c(cc1OCCCN1CCOCC1)N=C[C@@H]1CCCN1C2=O | 26.3 µM | 78.9 µM | 42.1 µM | 5.83 µM | 65.9 µM | 29.1 µM | 47.1 µM | 40.1 µM | 29.2 µM | 27.4 µM | – | – | – | – | – | – | – | – | – |
| COc1cccc(/C=N/[N+](C)(C)C)c1O | > 10 µM | > 10 µM | > 10 µM | > 10 µM | > 10 µM | > 10 µM | > 10 µM | > 10 µM | > 10 µM | > 10 µM | > 10 µM | – | – | – | – | – | – | – | – |
